Publication PMC6950057, “Toxicity, Pharmacokinetics, and Gut Microbiome of Oral Administration of Sesterterpene MHO7 Derived from a Marine Fungus” (Marine Drugs, 2019)
Read-outs that look alike come from different tables or passages of the source.

How the values were obtained:
[1] = Tissue distribution after single oral dose; format: in vivo, mice; settings: for concentration at 1 h / concentration at 4 h / concentration at 8 h / concentration at 12 h / concentration at 20 h / concentration at 30 h / Kp: KM, mouse; for Kp: female
Description: The animals and treatment methods were the same as in the pharmacokinetic studies. Afterwards, the biological samples (n = 6 per group) were collected at 1, 4, 8, 12, 20, and 30 h, and the tissues including heart, liver, spleen, lung, kidney, stomach, intestine, brain, muscle (hind limb), fat (white adipose tissue ), reproductive organs (uterus, fallopian tube and ovary) stomach and its contents, and intestine and its contents, and the blood samples were simultaneously collected. All the tissues were washed with cold physiological saline (4 °C), excess fluid blotted, accurately weighed, and subjected to the processing as described in the sample preparation. QC samples and standard curve series solutions were prepared in the same way of blank gastrointestinal contents and livers, respectively. The concentrations of HQC, MQC, and LQC in mice tissues were 10, 1, and 0.1 μM·L^−1, respectively, and the concentrations of standard curve series solutions were 50, 25, 10, 5, 2.5, 1, 0.5, 0.25, 0.1, and 0.005 μM·L^−1 for high and low concentrations of standard curves.

[2] = tested on: breast cancer cells (MCF-7); design: method as in PMID 31175940; settings: mechanism of down regulating estrogen receptor alpha (ERα); cited from earlier work
[3] = lung, oral 500 mg·kg^−1, female mice, read-out: Concentration in Lung
[4] = muscle (hind limb), oral 500 mg·kg^−1, female mice, read-out: Concentration in Muscle
[5] = reproductive organs (uterus, fallopian tube and ovary), oral 500 mg·kg^−1, female mice, read-out: Concentration in Reproductive organs
[6] = spleen, oral 500 mg·kg^−1, female mice, read-out: Concentration in Spleen

Q: With CC(C)=C/C=C/[C@H](C)[C@H]1CC[C@]2(C)C[C@@H]3C(C)=CC(=O)[C@H]3/C(C=O)=C\C[C@@H]12 [MHO7, 6-epi-ophiobolin G] as the compound, how does the concentration at 1 h [1, 3] read?
A: Its concentration at 1 h is 430 ± 180 ng/g.

Q: And the concentration at 4 h [1, 3]?
A: Its concentration at 4 h is 1060 ± 450 ng/g.

Q: And the concentration at 8 h [1, 3]?
A: The concentration at 8 h was 820 ± 710 ng/g.

Q: And the concentration at 12 h [1, 3]?
A: Its concentration at 12 h is 2340 ± 1910 ng/g.

Q: What about the concentration at 20 h [1, 3] of the same compound?
A: Its concentration at 20 h is 160 ± 40 ng/g.

Q: And the concentration at 30 h [1, 3]?
A: Its concentration at 30 h is 80 ± 20 ng/g.

Q: What about the concentration at 1 h [1, 4] of the same compound?
A: The concentration at 1 h was 310 ± 220 ng/g.

Q: What about the concentration at 4 h [1, 4] of the same compound?
A: The concentration at 4 h was 970 ± 480 ng/g.

Q: What about the concentration at 8 h [1, 4] of the same compound?
A: The concentration at 8 h was 640 ± 370 ng/g.

Q: And the concentration at 12 h [1, 4]?
A: Its concentration at 12 h is 1420 ± 800 ng/g.

Q: What about the concentration at 20 h [1, 4] of the same compound?
A: The concentration at 20 h was 170 ± 100 ng/g.

Q: What about the concentration at 30 h [1, 4] of the same compound?
A: Its concentration at 30 h is 20 ± 3 ng/g.

Q: What about the concentration at 1 h [1, 5] of the same compound?
A: Its concentration at 1 h is 880 ± 680 ng/g.

Q: And the concentration at 4 h [1, 5]?
A: Its concentration at 4 h is 2290 ± 1800 ng/g.

Q: And the concentration at 8 h [1, 5]?
A: The concentration at 8 h was 23900 ± 11300 ng/g.

Q: What about the concentration at 12 h [1, 5] of the same compound?
A: Its concentration at 12 h is 13700 ± 10300 ng/g.

Q: What about the concentration at 20 h [1, 5] of the same compound?
A: The concentration at 20 h was 1460 ± 1230 ng/g.

Q: And the concentration at 30 h [1, 5]?
A: Its concentration at 30 h is 360 ± 460 ng/g.

Q: What about the concentration at 1 h [1, 6] of the same compound?
A: Its concentration at 1 h is 40 ± 30 ng/g.

Q: And the concentration at 4 h [1, 6]?
A: Its concentration at 4 h is 430 ± 200 ng/g.

Q: What about the concentration at 8 h [1, 6] of the same compound?
A: The concentration at 8 h was 480 ± 500 ng/g.

Q: What about the concentration at 12 h [1, 6] of the same compound?
A: The concentration at 12 h was 200 ± 140 ng/g.

Q: And the concentration at 20 h [1, 6]?
A: Its concentration at 20 h is 310 ± 20 ng/g.

Q: What about the concentration at 30 h [1, 6] of the same compound?
A: Its concentration at 30 h is 10 ± 4 ng/g.

Q: What about the Kp ([1]; brain, over 1-30 h, oral 500 mg·kg^−1, read-out: tissue/plasma concentration ratio range, brain) of the same compound?
A: The Kp was 0.36 to 6.11.

Q: And the Kp ([1]; fat (white adipose tissue), over 1-30 h, oral 500 mg·kg^−1, read-out: tissue/plasma concentration ratio range, fat)?
A: Its Kp is 2.33 to 14.

Q: And the Kp ([1]; heart / plasma, over 1-30 h, oral 500 mg·kg^−1, read-out: tissue/plasma concentration ratio range, heart)?
A: Its Kp is 0.31 to 4.2.

Q: And the Kp ([1]; intestines, oral 500 mg·kg^−1, read-out: tissue/plasma concentration ratio, intestines)?
A: Its Kp is over 100.

Q: And the Kp ([1]; kidney, over 1-30 h, oral 500 mg·kg^−1, read-out: tissue/plasma concentration ratio range, kidney)?
A: The Kp was 0.68 to 17.2.

Q: And the Kp ([1]; liver, over 1-30 h, oral 500 mg·kg^−1, read-out: tissue/plasma concentration ratio range, liver)?
A: Its Kp is 0.18 to 17.4.

Q: What about the Kp ([1]; lung, over 1-30 h, oral 500 mg·kg^−1, read-out: tissue/plasma concentration ratio range, lung) of the same compound?
A: The Kp was 0.72 to 6.84.

Q: And the Kp ([1]; muscle (hind limb), over 1-30 h, oral 500 mg·kg^−1, read-out: tissue/plasma concentration ratio range, muscle)?
A: The Kp was 0.99 to 5.54.

Q: And the Kp ([1]; reproductive organs (uterus, fallopian tube and ovary), over 1-30 h, oral 500 mg·kg^−1, read-out: tissue/plasma concentration ratio range, reproductive organs)?
A: Its Kp is 6.05 to 30.4.

Q: And the Kp ([1]; spleen, over 1-30 h, oral 500 mg·kg^−1, read-out: tissue/plasma concentration ratio range, spleen)?
A: The Kp was 0.28 to 8.55.

Q: And the Kp ([1]; stomach, oral 500 mg·kg^−1, read-out: tissue/plasma concentration ratio, stomach)?
A: The Kp was over 1000.

Q: And the “amount in the intestine and its contents, of the intake” value ([1]; oral 500 mg·kg^−1, female mice)?
A: The value was “less than 5%”.

Q: What about the “amount in the stomach and its contents, of the intake” value ([1]; oral 500 mg·kg^−1, female mice) of the same compound?
A: The value was 16.79%.

Q: What about the “concentration range in fat” value ([1]; over 1-30 h, oral 500 mg·kg^−1) of the same compound?
A: Its value is 0.18–11.15.

Q: And the “concentration range in the brain” value ([1]; over 1-30 h, oral 500 mg·kg^−1)?
A: Its value is 0.01–0.95.

Q: And the “concentration range in the heart” value ([1]; over 1-30 h, oral 500 mg·kg^−1)?
A: Its value is 0.04–0.85.

Q: What about the “concentration range in the kidney” value ([1]; over 1-30 h, oral 500 mg·kg^−1) of the same compound?
A: The value was 0.07–8.16.

Q: What about the “concentration range in the liver” value ([1]; over 1-30 h, oral 500 mg·kg^−1) of the same compound?
A: The value was 0.01–3.01.

Q: What about the “concentration range in the lung” value ([1]; over 1-30 h, oral 500 mg·kg^−1) of the same compound?
A: Its value is 0.08–2.34.

Q: What about the “concentration range in the muscle” value ([1]; over 1-30 h, oral 500 mg·kg^−1) of the same compound?
A: The value was 0.02–1.42.

Q: What about the “concentration range in the reproductive organs” value ([1]; over 1-30 h, oral 500 mg·kg^−1) of the same compound?
A: Its value is 0.36–23.90.

Q: What about the “concentration range in the spleen” value ([1]; over 1-30 h, oral 500 mg·kg^−1) of the same compound?
A: Its value is 0.01–0.48.

Q: What about the antitumor activity [2] of the same compound?
A: Its antitumor activity is “potent antitumor activity”.
